Holding throughout (type): physicochemical
Data set [1] is described as follows: Hygroscopicity / water content by dynamic vapor sorption (DVS). The source says: (§1) The inventors found several advantages of these new forms of 5-(4′-fluoro-2′-oxo-1′,2′-dihydrospiro[cyclopropane-1,3′-indol]-5′-yl)-1-methyl-1H-pyrrole-2-carbonitrile. […] In yet a further embodiment, samples of the hydrate of 5-(4′-fluoro-2′-oxo-1′,2′-dihydrospiro[cyclopropane-1,3′-indol]-5′-yl)-1-methyl-1H-pyrrole-2-carbonitrile were hygroscopic.
The hydrate has a different structure of the crystal lattice of 5-(4′-fluoro-2′-oxo-1′,2′-dihydrospiro[cyclopropane-1,3′-indol]-5′-yl)-1-methyl-1H-pyrrole-2-carbonitrile from the Form I described in the art as determined by XRD and DSC. Specifically, the hydrate contains water in the crystal lattice. Specifically, as evidenced by dynamic vapor sorption (DVS), the hydrate contains about 2.5% to about 5% water. In one embodiment, the hydrate contains about 2.5% water at 0% relative humidity (RH).

The nature of data set [2]: Solid-form stability (thermodynamic stability, slurrying in solvent, water, micronization, vacuum).
Description: as §1
The hydrate of 5-(4′-fluoro-2′-oxo-1′,2′-dihydrospiro[cyclopropane-1,3′-indol]-5′-yl)-1-methyl-1H-pyrrole-2-carbonitrile is also stable under a variety of conditions. In one example, the hydrate is stable in water. In another example, the hydrate is stable under conditions of micronization. In a further example, the hydrate is stable under a vacuum for a period of at least about 48 hours.

Data set [3] is described as follows: Relative solubility of the crystallographic forms.
Description: as §1

On to `Cn1c(C#N)ccc1-c1ccc2c(c1F)C1(CC1)C(=O)N2` [polymorph Form II, 5-(4′-fluoro-2′-oxo-1′,2′-dihydrospiro[cyclopropane-1,3′-indol]-5′-yl)-1-methyl-1H-pyrrole-2-carbonitrile], for which the hygroscopicity result in data set [1] is “not hygroscopic”. Also, in data set [2] (compared with polymorph Form I), the thermodynamic stability entry was “more thermodynamically stable”. Besides, the “conversion to other polymorphs” value in data set [2] (if slurried in a solvent) is given as “does not convert to other polymorphs”.

As for `Cn1c(C#N)ccc1-c1ccc2c(c1F)C1(CC1)C(=O)N2` [hydrate, 5-(4′-fluoro-2′-oxo-1′,2′-dihydrospiro[cyclopropane-1,3′-indol]-5′-yl)-1-methyl-1H-pyrrole-2-carbonitrile], in data set [1], the hygroscopicity result is recorded as “hygroscopic”. Moreover, the figures for the “water content (DVS)” value in data set [1] (at 0% relative humidity (RH)) and in data set [1] (at 100% RH) were “about 2.5%” and “about 4.75%”, respectively. The stability result in data set [2] (in water) and in data set [2] (under conditions of micronization) was “stable” in each case. Further, the “period of stability under a vacuum” value in data set [2] (under a vacuum) is on record as “at least 48 hours”.

Consider `Cn1c(C#N)ccc1-c1ccc2c(c1F)C1(CC1)C(=O)N2` [polymorph Form III, 5-(4′-fluoro-2′-oxo-1′,2′-dihydrospiro[cyclopropane-1,3′-indol]-5′-yl)-1-methyl-1H-pyrrole-2-carbonitrile], for which the solubility entry was “more soluble than other crystallographic forms” in data set [3] (compared with other crystallographic forms) and “more soluble than polymorph Form II” in data set [3] (compared with polymorph Form II).

Source of the values: patent US20080312306A1, “POLYMORPHS, SOLVATES, AND HYDRATE OF 5-(4'-FLUORO-2'-OXO-1',2'-DIHYDROSPIRO[CYCLOPROPANE-1,3'-INDOL]-5'-YL)-1-METHYL-1H-PYRROLE-2-CARBONITRILE” (Wyeth, priority 2007, published 2008).
